“Also recorded” adds a separate entry of the source. Read-outs that look alike come from different tables or passages of the source.
Key:
[1] = tested on: adult F. hepatica flukes (Italian strain); test: Ex vivo dose response motility assay on adult liver flukes (Italian strain); type: cell-based, Fasciola hepatica; settings: for Average motility of 3 parasites treated with 4.4 µM, 24 hours / Average motility of 3 parasites treated with 4.4 µM, 48 hours / Average motility of 3 parasites treated with 4.4 µM, 72 hours / Average motility of 3 parasites treated with 13.3 µM, 24 hours / Average motility of 3 parasites treated with 13.3 µM, 48 hours / Average motility of 3 parasites treated with 13.3 µM, 72 hours / Average motility of 3 parasites treated with 40 µM, 24 hours / Average motility of 3 parasites treated with 40 µM, 48 hours / Average motility of 3 parasites treated with 40 µM, 72 hours: adult flukes Italian strain, score 1 to 6; for EC50: adult flukes, motility; for Effect on adult fluke (Italian strain) movement, in words: dose response, MC042 statement at 40 μM after 72 h
Protocol: The collection, ex vivo culturing and screening of adult liver fluke (Italian strain; n = 3/condition) was previously described. Dose response assays (40 µM, 13.3 µM and 4.4 µM) were conducted for MC014, MC042, MC035, MC055 and MC062 with motility scores recorded at 24, 48 and 72 h (Table S6).

[2] = tested on: Madin–Darby bovine kidney (MDBK) cells; test: MTT cell viability assay on MDBK cells; type: cell-based
Protocol: MTT cell viability assays were performed on Madin–Darby bovine kidney (MDBK cells) for the five selected hederagenin derivatives (MC014, MC035, MC042, MC055 and MC062) using final concentrations of 100 μM, 75 μM, 50 μM, 25 μM, 10 μM, 5 μM and 1 μM (in 1% DMSO). Negative (1% v/v Triton X-100, Sigma-Aldrich, UK) and positive (1% v/v DMSO or media only) controls were included. The protocol was followed as previously described. Absolute EC50 values were calculated from the corrected absorbance of replicates by non-linear regression, after log transformation of concentrations and data normalization (where DMSO values represents 0% inhibition and TX-100 values represent 100% inhibition) using GrapPad Prism 8.

[3] = tested on: wild strain adult F. hepatica; test: Ex vivo motility assay on adult liver flukes (wild strain); type: cell-based, Fasciola hepatica; settings: 40 µM; for Effect on wild strain adult fluke motility, in words: 72 h; for Average motility of 4 parasites with 95% CI at 72 hour time point: wild strain adult flukes, score 1 good/normal to 6 no movement or dead
Protocol: Due to the high number of active molecules and a shortage of Italian strain adult liver flukes, the eleven hit compounds were screened for 72 h at 40 µM (in 0.4% DMSO) on wild strain adult F. hepatica (n = 4/condition) of unknown provenance (Table S3). The protocol for culturing and scoring (motility) the activity of these compounds was previously described (1—good/normal; 2—moderate; 3—resting (less than 10 s pulses of body and head), 4—apathetic (less than 2 s pulses of body and head), 5—paralysis and 6–no movement or dead worms). Six compounds were deemed active in these assays and were selected for further screening.

[4] = tested on: F. hepatica newly excysted juveniles (NEJs), Italian strain; test: Ex vivo screen against newly excysted juveniles (NEJs), phenotype and motility scoring; type: cell-based, Fasciola hepatica; settings: for Average phenotype of 25 NEJs with 95% CI, 24 hours / Average phenotype of 25 NEJs with 95% CI, 48 hours / Average phenotype of 25 NEJs with 95% CI, 72 hours: ultrastructure score 1 normal to 6 dead or dissolved; for Activity against NEJs (first screen), in words: 72 h co-culture
Protocol: […] The NEJs were excysted from metacercariae and assayed at 10 μM (in 0.1% DMSO) final concentration alongside negative (0.1% DMSO) and positive (10 μM TCBZ, in 0.1% DMSO) controls as previously described. The MC and IVL compound series were screened separately.
The motility (1—good/normal; 2—moderate; 3—low; 4—very little; 5—no movement) and phenotypic (ultrastructural changes) scores were noted according to a previously described scoring matrix (Figure S1 and Table S2).

[5] = tested on: immature F. hepatica flukes (Italian strain); test: Ex vivo motility assay on immature liver flukes (Italian strain), single concentration and dose response; type: cell-based, Fasciola hepatica; settings: 40 µM; for Average motility of 4 parasites with 95% CI at 24 hour time point: score 1 normal to 5 no movement or death; for Effect on immature fluke motility, in words: by 72 h
Protocol: The six selected compounds (at 40 µM in 0.4% DMSO) were evaluated on immature flukes (n = 4/condition) at 24, 48 and 72 h (Table S4). The protocol for culturing and scoring (motility) of these life stages have been previously described. Due to restricted numbers of immature worms, a dose response assay was conducted only for MC042. Here, immature worms (n = 2/concentration tested) were screened against descending concentrations of MC042 (40 µM, 13.3 µM and 4.4 µM); motility scores were recorded at 24, 48 and 72 h (Table S5). The scoring pattern used is identical to that described for NEJs.

[6] = 72 h, read-out: EC50 with 95% CI on Adult Flukes (motility), 72 hour
[7] = 10 µM, 24 h, motility score 1 good/normal to 5 no movement
[8] = 10 µM, 48 h, motility score 1 good/normal to 5 no movement
[9] = 48 h, immature flukes, score 1 to 5
[10] = 72 h, immature flukes, score 1 to 5

Compound | Average motility of 3 parasites treated with 4.4 µM, 24 hours [1] | Average motility of 3 parasites treated with 4.4 µM, 48 hours [1] | Average motility of 3 parasites treated with 4.4 µM, 72 hours ([1]; 72 h) | Average motility of 3 parasites treated with 13.3 µM, 24 hours [1] | Average motility of 3 parasites treated with 13.3 µM, 48 hours [1] | Average motility of 3 parasites treated with 13.3 µM, 72 hours ([1]; 72 h) | Average motility of 3 parasites treated with 40 µM, 24 hours [1] | Average motility of 3 parasites treated with 40 µM, 48 hours [1] | Average motility of 3 parasites treated with 40 µM, 72 hours ([1]; 72 h) | EC50 [1, 6] | Effect on adult fluke (Italian strain) movement, in words [1] | Effect on wild strain adult fluke motility, in words [3] | Average motility of 4 parasites with 95% CI at 72 hour time point [3] | Average motility of 25 NEJs with 95% CI, 24 hours [4, 7] | Average phenotype of 25 NEJs with 95% CI, 24 hours ([4]; 10 µM, 24 h) | Average motility of 25 NEJs with 95% CI, 48 hours [4, 8] | Average motility of 4 parasites with 95% CI at 24 hour time point ([5]; 24 h, immature flukes) | Average motility of 4 parasites with 95% CI at 48 hour time point [5, 9] | Average motility of 4 parasites with 95% CI at 72 hour time point [5, 10] | Effect on immature fluke motility, in words [5] | also measured
CC1(C)CC[C@]2(C(=O)O)CC[C@]3(C)C(=CC[C@@H]4[C@@]5(C)CC[C@@H]6OC(C)(C)OC[C@@]6(C)[C@@H]5CC[C@]43C)[C@@H]2C1 [MC014] | 1.00 (1.0;1.0) | 1.00 (1.0;1.0) | 3.00 (1.8; 4.1) | 1.33 (0.6;1.9) | 1.66 (0.3;2.9) | 3.33 (2.6;3.9) | 3.33 (2.6;3.9) | 4.00 (4.0;4.0) | 5.33 (4.0;6.6) | 9.3 µM | Decreased movement | no motility after 72 h; also recorded: performed very well | 6.00 (6.0;6.0) | 5.00 (5.0;5.0) | 4.12 (3.5;4.6) | 5.00 (5.0;5.0) | 5.00 (5.0;5.0) | 5.00 (5.0;5.0) | 5.00 (5.0;5.0) | paralyzed the assayed immature flukes | EC50 ([1]; 24 h exposure, read-out: EC50 with 95% CI on Adult Flukes (motility), 24 hour): 13.5 µM; CC50 with 95% CI on MDBK cells (cytotoxicity) ([2]; MDBK cells, MTT, 24 h exposure): Undefined ^c; Effect on MDBK cell proliferation, in words ([2]; dose response titration up to 100 μM): modest proliferative effect; Cytotoxicity on MDBK cells, in words ([2]; highest concentration tested 100 μM): not cytotoxic even at the highest concentration tested; Average phenotype of 25 NEJs with 95% CI, 48 hours ([4]; 10 µM, 48 h): 6.00 (6.0;6.0); Average motility of 25 NEJs with 95% CI, 72 hours ([4]; 10 µM, 72 h, motility score 1 good/normal to 5 no movement): 5.00 (5.0;5.0); Average phenotype of 25 NEJs with 95% CI, 72 hours ([4]; 10 µM, 72 h): 6.00 (6.0;6.0); Activity against NEJs (first screen), in words ([4]; 10 µM): maximal alterations to both phenotype/ultrastructure and motility
CC1(C)CC[C@]2(NC(=O)N3CCNCC3)CC[C@]3(C)C(=CCC4[C@@]5(C)CCC6OC(C)(C)OC[C@@]6(C)C5CC[C@]43C)C2C1 (stereo partly drawn) [MC035, N-((4aR,6aR,6bS,8aS,14bR)-2,2,4a,6a,6b,11,11,14b-Octamethyl-4a,5,6,6a,6b,7,8,9,10,11,12,12a,14,14a, 14b,15,16,16a-octadecahydro-4H-piceno[3,4-d][1,3]dioxin-8a(4bH)-yl)piper-azine-1-carboxamide] | 1.00 (1.0;1.0) | 1.00 (1.0;1.0) | 1.00 (1.0;1.0) | 1.00 (1.0;1.0) | 1.00 (1.0;1.0) | 3.66 (2.3; 4.9) | 2.33 (1.6;2.9) | 4.33 (3.6;4.9) | 5.00 (3.8;6.1) | 14.3 µM | Decreased movement | partial paralysis | 5.75 (5.2; 6.2) | 5.00 (5.0;5.0) | 6.00 (6.0;6.0) | 5.00 (5.0;5.0) | 5.00 (5.0;5.0) | 5.00 (5.0;5.0) | 5.00 (5.0;5.0) | paralyzed the assayed immature flukes | CC50 ([2]; MDBK cells, MTT, 24 h exposure, read-out: CC50 with 95% CI on MDBK cells (cytotoxicity)): 79.8 µM; Average phenotype of 25 NEJs with 95% CI, 48 hours ([4]; 10 µM, 48 h): 6.00 (6.0;6.0); Average phenotype of 25 NEJs with 95% CI, 72 hours ([4]; 10 µM, 72 h): 6.00 (6.0;6.0); Activity against NEJs (first screen), in words ([4]; 10 µM): maximal alterations to both phenotype/ultrastructure and motility
CSc1nc2cc(Cl)c(Oc3cccc(Cl)c3Cl)cc2[nH]1 [Triclabendazole, reference compound] | 1.00 (1.0; 1.0) | 1.00 (1.0; 1.0) | 1.00 (1.0; 1.0) | 1.00 (1.0;1.0) | 1.33 (0.6;1.9) | 2.00 (0.8; 3.1) | 2.33 (1.6; 2.9) | 5.66 (5.0; 6.3) | 6.00 (6.0; 6.0) | – | – | – | 6.00 (6.0;6.0) | – | – | – | 5.0 (5.0,5.0) | 5.0 (5.0,5.0) | 5.0 (5.0,5.0) | completely immobile by 72 h | Average motility of NEJs with 95% CI, 24 hours (positive control) ([4]; 40µM, 24 h, 50 NEJs, score 1 to 5): 5.00 (5.0;5.0); Average phenotype of NEJs with 95% CI, 24 hours (positive control) ([4]; 40µM, 24 h, 50 NEJs, score 1 to 6): 6.00 (6.0;6.0); Average motility of NEJs with 95% CI, 48 hours (positive control) ([4]; 40µM, 48 h, 50 NEJs, score 1 to 5): 5.00 (5.0;5.0); Average phenotype of NEJs with 95% CI, 48 hours (positive control) ([4]; 40µM, 48 h, 50 NEJs, score 1 to 6): 6.00 (6.0;6.0); Average motility of NEJs with 95% CI, 72 hours (positive control) ([4]; 40µM, 72 h, 50 NEJs, score 1 to 5): 5.00 (5.0;5.0); Average phenotype of NEJs with 95% CI, 72 hours (positive control) ([4]; 40µM, 72 h, 50 NEJs, score 1 to 6): 6.00 (6.0;6.0); Average motility of 2 parasites treated with 40 µM, 24 hours ([5]; 24 h, immature flukes, dose response, score 1 to 5): 5.00 (5.0; 5.0); Average motility of 2 parasites treated with 40 µM, 48 hours ([5]; 48 h, immature flukes, dose response, score 1 to 5): 5.00 (5.0; 5.0); Average motility of 2 parasites treated with 40 µM, 72 hours ([5]; 72 h, immature flukes, dose response, score 1 to 5): 5.00 (5.0; 5.0)

Reference: PMC10385850, “Modified Hederagenin Derivatives Demonstrate Ex Vivo Anthelmintic Activity against Fasciola hepatica” (Pharmaceutics, 2023)
